This note sets out measurements from patent publication US8664220B2, “Polycyclic compounds as lysophosphatidic acid receptor antagonists” (Amira Pharmaceuticals, Inc., priority 2009, dated 2014).

For the test, the target named is T1, human LPA1 (Homo sapiens, UniProt Q92633).
T1 construct: the full-length cDNA for human LPA1 was obtained by PCR of the reverse transcription reaction; expressed in transfected cells
As to the kind of experiment: LPA1 calcium flux assay. Particulars: human LPA1 expressing CHO cells, stimulated with 10 nM LPA; read-out: HLPA1 Ca Flux IC50. The format is cell-based. The gist of the method: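 CHO cells stably expressing human LPA1, serum-starved overnight and loaded with Calcium 4 dye in HBSS/20 mM Hepes/0.3% fatty-acid-free HSA, 1 h at 37 °C. Compounds pre-incubated 30 min at room temperature, then 10 nM LPA added; intracellular Ca2+ flux measured and IC50 from titration curves.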
(Calcium assays in cells follow changes in intracellular calcium, usually with a dye or a luminescent sensor.)

As usually defined, the IC50 is the concentration that inhibits the measured activity by half.

Structures are written as SMILES. A value given as a limit tells only on which side of the number the result lay.

T1 sequence (Q92633 whole entry): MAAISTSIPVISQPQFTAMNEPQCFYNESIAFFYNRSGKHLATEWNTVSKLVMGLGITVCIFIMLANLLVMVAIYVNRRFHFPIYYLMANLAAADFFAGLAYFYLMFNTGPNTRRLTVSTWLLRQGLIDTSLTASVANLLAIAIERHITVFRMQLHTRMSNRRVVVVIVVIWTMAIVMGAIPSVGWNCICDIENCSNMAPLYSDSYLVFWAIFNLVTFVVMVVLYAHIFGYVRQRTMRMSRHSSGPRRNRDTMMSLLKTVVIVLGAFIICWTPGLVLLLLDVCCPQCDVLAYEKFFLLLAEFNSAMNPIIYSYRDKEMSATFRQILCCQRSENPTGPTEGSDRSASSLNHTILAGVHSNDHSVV

For the compound `Cc1noc(-c2ccc(-c3ccc(C4(C(=O)O)CC4)cc3)cc2)c1Nc1cccc(-c2cccc(C(F)(F)F)c2)n1` [Compound 1-77, 1-(4′-{3-Methyl-4-[6-(3-trifluoromethyl-phenyl)-pyridin-2-ylamino]-isoxazol-5-yl}-biphenyl-4-yl)-cyclopropanecarboxylic acid], the IC50 is < 300 nM.
Consider `Cc1noc(-c2ccc(-c3ccc(C4(C(=O)O)CC4)cc3)cc2)c1Nc1cncc(-c2ccccc2)n1` [Compound 1-78, 1-{4′-[3-Methyl-4-(6-phenyl-pyrazin-2-ylamino)-isoxazol-5-yl]-biphenyl-4-yl}-cyclopropanecarboxylic acid], for which the half-inhibitory concentration (IC50) was < 300 nM.
As for `Cc1noc(-c2ccc(-c3ccc(C4(C(=O)O)CC4)cc3)cc2)c1Nc1cccc(Oc2ccccc2)n1` [Compound 1-79, 1-{4′-[3-Methyl-4-(6-phenoxy-pyridin-2-ylamino)-isoxazol-5-yl]-biphenyl-4-yl}-cyclopropanecarboxylic acid], the figure is < 300 nM.
Regarding `Cc1noc(-c2ccc(-c3ccc(C4(C(=O)O)CC4)cc3)cc2)c1Nc1nnc(-c2ccccc2)o1` [Compound 1-80, 1-{4′-[3-Methyl-4-(5-phenyl-[1,3,4]oxadiazol-2-ylamino)-isoxazol-5-yl]-biphenyl-4-yl}-cyclopropanecarboxylic acid], the concentration for half-maximal inhibition (IC50) was < 300 nM.
Under `Cc1noc(-c2ccc(-c3ccc(CCC(=O)O)cc3)cc2)c1Nc1nnc(-c2ccccc2)o1` [Compound 1-81, 3-{4′-[3-Methyl-4-(5-phenyl[1,3,4]oxadiazol-2-ylamino)-isoxazol-5-yl]-biphenyl-4-yl}-propionic acid] stands < 300 nM; under `Cc1noc(-c2ccc(-c3ccc(C4(C(=O)O)CC4)cc3)cc2)c1Nc1cccc(Oc2ccccc2)c1` [Compound 1-82, 1-{4′-[3-Methyl-4-(3-phenoxy-phenylamino)-isoxazol-5-yl]-biphenyl-4-yl}-cyclopropanecarboxylic acid], < 300 nM; under `Cc1noc(-c2ccc(-c3ccc(C4(C(=O)O)CC4)cc3)cc2)c1Nc1nnc(Cc2ccccc2)o1` [Compound 1-83, 1-{4′-[4-(5-Benzyl-[1,3,4]oxadiazol-2-ylamino)-3-methyl-isoxazol-5-yl]-biphenyl-4-yl}-cyclopropanecarboxylic acid], < 300 nM.
With `Cc1noc(-c2ccc(-c3ccc(C4(C(=O)O)CC4)cc3)cc2)c1Nc1cccc(Cc2ccccc2F)n1` [Compound 1-84, 1-(4′-{4-[6-(2-Fluoro-benzyl)-pyridin-2-ylamino]-3-methyl-isoxazol-5-yl}-biphenyl-4-yl)-cyclopropanecarboxylic acid], the 50% inhibitory concentration (IC50) was < 300 nM.
As to `Cc1noc(-c2ccc(-c3ccc(C4(C(=O)O)CC4)cc3)cc2)c1Nc1cccc(Cc2cccc(F)c2)n1` [Compound 1-85, 1-(4′-{4-[6-(3-Fluoro-benzyl)-pyridin-2-ylamino]-3-methyl-isoxazol-5-yl}-biphenyl-4-yl)-cyclopropanecarboxylic acid], the 50% inhibitory concentration (IC50) was < 300 nM.
As for `Cc1noc(-c2ccc(-c3ccc(C4(C(=O)O)CC4)cc3)cc2)c1Nc1cccc(Cc2ccc(F)cc2)n1` [Compound 1-86, 1-(4′-{4-[6-(4-Fluoro-benzyl)-pyridin-2-ylamino]-3-methyl-isoxazol-5-yl}-biphenyl-4-yl)-cyclopropanecarboxylic acid], the figure is < 300 nM.
`CCOc1ccc(-c2cccc(Nc3c(C)noc3-c3ccc(-c4ccc(C5(C(=O)O)CC5)cc4)cc3)n2)cn1` [Compound 1-87, 1-{4′-[4-(6′-Ethoxy-[2,3]bipyridinyl-6-ylamino)-3-methyl-isoxazol-5-yl]-biphenyl-4-yl}-cyclopropanecarboxylic acid]: the half-inhibitory concentration (IC50) is 300 to 1000 nM.
As for `COc1cccc(-c2cccc(Nc3c(C)noc3-c3ccc(-c4ccc(C5(C(=O)O)CC5)cc4)cc3)n2)c1` [Compound 1-88, 1-(4′-{4-[6-(3-Methoxy-phenyl)-pyridin-2-ylamino]-3-methyl-isoxazol-5-yl}-biphenyl-4-yl)-cyclopropanecarboxylic acid], the 50% inhibitory concentration (IC50) is < 300 nM.
Under `COc1ncccc1-c1cccc(Nc2c(C)noc2-c2ccc(-c3ccc(C4(C(=O)O)CC4)cc3)cc2)c1` [Compound 1-89, 1-(4′-{4-[3-(2-Methoxy-pyridin-3-yl)-phenylamino]-3-methyl-isoxazol-5-yl}-biphenyl-4-yl)-cyclopropanecarboxylic acid] stands < 300 nM; under `Cc1noc(-c2ccc(-c3ccc(C4(C(=O)O)CC4)cc3)cc2)c1Nc1cccc(Cc2ccccc2)c1` [Compound 1-90, 1-{4′-[4-(3-Benzyl-phenylamino)-3-methyl-isoxazol-5-yl]-biphenyl-4-yl}-cyclopropanecarboxylic acid], < 300 nM.
`Cc1noc(-c2ccc(-c3ccc(C4(C(=O)O)CC4)cc3)cc2)c1Nc1cccc(-c2ccccc2C#N)n1` [Compound 1-91, 1-(4′-{4-[6-(2-Cyano-phenyl)-pyridin-2-ylamino]-3-methyl-isoxazol-5-yl}-biphenyl-4-yl)-cyclopropanecarboxylic acid]: the IC50 was < 300 nM.
For the compound `COc1ccc(-c2cccc(Nc3c(C)noc3-c3ccc(-c4ccc(C5(C(=O)O)CC5)cc4)cc3)n2)cc1` [Compound 1-92, 1-(4′-{4-[6-(4-Methoxy-phenyl)-pyridin-2-ylamino]-3-methyl-isoxazol-5-yl}-biphenyl-4-yl)-cyclopropanecarboxylic acid], the IC50 was < 300 nM.
Under `Cc1noc(-c2ccc(-c3ccc(C4(C(=O)O)CC4)cc3)cc2)c1Nc1cccc(-c2cccc(F)c2)n1` [Compound 1-93, 1-(4′-{4-[6-(3-Fluoro-phenyl)-pyridin-2-ylamino]-3-methyl-isoxazol-5-yl}-biphenyl-4-yl)-cyclopropanecarboxylic acid] stands < 300 nM.
As to `COc1ccccc1-c1cccc(Nc2c(C)noc2-c2ccc(-c3ccc(C4(C(=O)O)CC4)cc3)cc2)n1` [Compound 1-94, 1-(4′-{4-[6-(2-Methoxy-phenyl)-pyridin-2-ylamino]-3-methyl-isoxazol-5-yl}-biphenyl-4-yl)-cyclopropanecarboxylic acid], the IC50 is < 300 nM.
Regarding `Cc1noc(-c2ccc(-c3ccc(C4(C(=O)O)CC4)cc3)cc2)c1Nc1cccc(-c2ccccc2F)n1` [Compound 1-95, 1-(4′-{4-[6-(2-Fluoro-phenyl)-pyridin-2-ylamino]-3-methyl-isoxazol-5-yl}-biphenyl-4-yl)-cyclopropanecarboxylic acid], the IC50 is < 300 nM.
As for `Cc1noc(-c2ccc(-c3ccc(C4(C(=O)O)CC4)cc3)cc2)c1Nc1cccc(-c2ccccc2C(F)(F)F)n1` [Compound 1-96, 1-(4′-{3-methyl-4-[6-(2-trifluoromethyl-phenyl)-pyridin-2-ylamino]-isoxazol-5-yl}-biphenyl-4-yl)-cyclopropanecarboxylic acid], the figure is < 300 nM; as for `COc1ncccc1-c1cccc(Nc2c(C)noc2-c2ccc(-c3ccc(C4(C(=O)O)CC4)cc3)cc2)n1` [Compound 1-97, 1-{4′-[4-(2′-Methoxy-[2,3′]bipyridinyl-6-ylamino)-3-methyl-isoxazol-5-yl]-biphenyl-4-yl}-cyclopropanecarboxylic acid], < 300 nM.
Take `COc1ccc(-c2cccc(Nc3c(C)noc3-c3ccc(-c4ccc(C5(C(=O)O)CC5)cc4)cc3)n2)cn1` [Compound 1-98, 1-{4′-[4-(6′-Methoxy-[2,3′]bipyridinyl-6-ylamino)-3-methyl-isoxazol-5-yl]-biphenyl-4-yl}-cyclopropanecarboxylic acid]: the 50% inhibitory concentration (IC50) is < 300 nM.
Consider `Cc1noc(-c2ccc(-c3ccc(C4(C(=O)O)CC4)cc3)cc2)c1Nc1cccc(-c2ccncc2)n1` [Compound 1-99, 1-{4′-[4-([2,4′]Bipyridinyl-6-ylamino)-3-methyl-isoxazol-5-yl]-biphenyl-4-yl}-cyclopropanecarboxylic acid], for which the concentration for half-maximal inhibition (IC50) is < 300 nM.
With `Cc1noc(-c2ccc(-c3ccc(C4(C(=O)O)CC4)cc3)cc2)c1NCc1cnc(-c2ccccc2)s1` [Compound 1-100, 1-(4′-{3-Methyl-4-[(2-phenyl-thiazol-5-ylmethyl)-amino]-isoxazol-5-yl}-biphenyl-4-yl)-cyclopropanecarboxylic acid], the concentration for half-maximal inhibition (IC50) is < 300 nM.
`Cc1noc(-c2ccc(-c3ccc(C4(C(=O)O)CC4)cc3)cc2)c1Nc1cccc(-c2ccccc2C(F)(F)F)c1` [Compound 1-101, 1-{4′-[3-Methyl-4-(2′-trifluoromethyl-biphenyl-3-ylamino)-isoxazol-5-yl]-biphenyl-4-yl}-cyclopropanecarboxylic acid]: the IC50 was < 300 nM.
As for `COc1ccc(-c2cccc(Nc3c(C)noc3-c3ccc(-c4ccc(C5(C(=O)O)CC5)cc4)cc3)c2)cn1` [Compound 1-102, 1-(4′-{4-[3-(6-Methoxy-pyridin-3-yl)-phenylamino]-3-methyl-isoxazol-5-yl}-biphenyl-4-yl)-cyclopropanecarboxylic acid], the figure is < 300 nM; as for `Cc1noc(-c2ccc(-c3ccc(C4(C(=O)O)CC4)cc3)cc2)c1Nc1cccc(-c2cccnc2)c1` [Compound 1-103, 1-{4′-[3-Methyl-4-(3-pyridin-3-yl-phenylamino)-isoxazol-5-yl]-biphenyl-4-yl}-cyclopropanecarboxylic acid], < 300 nM; as for `COc1cncc(-c2cccc(Nc3c(C)noc3-c3ccc(-c4ccc(C5(C(=O)O)CC5)cc4)cc3)c2)c1` [Compound 1-104, 1-(4′-{4-[3-(5-Methoxy-pyridin-3-yl)-phenylamino]-3-methyl-isoxazol-5-yl}-biphenyl-4-yl)-cyclopropanecarboxylic acid], < 300 nM.
In the case of `Cc1noc(-c2ccc(-c3ccc(C4(C(=O)O)CC4)cc3)cc2)c1Nc1cccc(N(C)c2ccccc2)n1` [Compound 1-105, 1-(4′-{3-Methyl-4-[6-(methyl-phenyl-amino)-pyridin-2-ylamino]-isoxazol-5-yl}-biphenyl-4-yl)-cyclopropanecarboxylic acid], the half-inhibitory concentration (IC50) is 300 to 1000 nM.
